Measured values taken from patent publication US6946456B2, “Methods for treating cell proliferative disorders and viral infections” (Sloan-Kettering Institute for Cancer Research, priority 2000, dated 2005).
Entries after “also recorded” stand apart in the source; their conditions may differ.

Tests used:
[1] = test system: Rb-wild type cells (MCF7 and Colo 205); assay: Cell cycle analysis by flow cytometry of ethidium bromide-stained nuclei, Rb-wild type tumor cell lines; assay type: cell-based, human; details: for cell cycle effect in tumor cell lines: 12 tumor cell lines examined, FIG. 1A
Protocol: (§1) The human breast cancer cell lines MB-MDA 468, MCF7 and BT-549 and the colon carcinoma cell line, Colo 205, were obtained from ATCC. Breast cell lines were maintained in DME-F12 media and Colo 205 cells in RPMI; both media were supplemented with 5% fetal calf serum (BRL), 2 mM glutamine and 50 u/ml each of penicillin and streptomycin. All cells were incubated at 37° C. in 5% C02. Cells were treated for 24 hours with 250 ng/ml herbimycin A (Gibco) dissolved in DMSO or 435 nM of radicicol (Sigma). After treatment the […] and analyzed by flow cytometry. Nuclei were isolated for flow cytometry assays stained with ethidium bromide and analyzed using a Becton Dickinson fluorescence-activated cell sorter. Statistical data was obtained using Multicycle program software.

[2] = test system: tumor cell lines with mutated Rb (MB-MDA 468, BT-549, DU145 and DU4475); assay: Cell cycle analysis by flow cytometry of ethidium bromide-stained nuclei, tumor cell lines with mutated Rb; assay type: cell-based, human
Protocol: as §1

[3] = test system: HPV 16 E6/E7 transfected human foreskin keratinocytes; assay: Cell cycle analysis in HPV 16 E6/E7 transfected human foreskin keratinocytes; assay type: cell-based; details: 24 hours
Protocol: (§2) Primary human foreskin keratinocytes transfected with HPV-1 6 E6 and E7 were provided by Drs. H. Stöppler and R. Schlegel (Georgetown Univ.) and grown as previously described. Primary human foreskin keratinocytes or HPV 16 E6/E7 transfected human foreskin keratinoytes were treated with HA or DMSO for 24 hours and ethidium bromide stained-nuclei analyzed by flow cytometry as described above.

[4] = test system: primary human foreskin keratinocytes (HFK); assay: Cell cycle analysis in primary human foreskin keratinocytes; assay type: cell-based; details: 24 hours
Protocol: as §2

MB-MDA 468 cells [5] = assay: Mitotic index by bisbenzimide staining; assay type: cell-based, human
Protocol: For mitotic indices, cells were typsinized, washed with PBS and fixed with 3% paraformaidehyde in PBS for 20 min. Cells were then stained with 3 μg/ml bisbenzimide (Hoechst 33258; Sigma) for 15 min and examined under fluorescence microscopy. Mitosis was scored by the presence of condensed chromosomes.

cyclin A expression = assay: Immunoblot analysis of cyclin A expression; assay type: cell-based, human; details: MB-MDA 468, arrested cells compared to control cells
Protocol: (§3) Levels of mitotic cyclin expression and associated kinase activities in herbimycin arrested MB-MD468 cells were assessed using immunoblot analysis and in vitro kinase assays as described below. Cells cultured with herbimycin were enriched for mitotically arrested cells by using only the loosely adherent population in which the mitotic index was greater than 90%.
(§4) Immunoblot analysis of lysates from cells treated with DMSO, nocodazole or herbimycin were analyzed by Western blot analysis using anti-cyclin A or anti-B1 antibodies. Treated cells were harvested, washed with PBS and lysed in NP40 lysis buffer (50 mM Tris pH7.4, 1% NP40,150 mM NaCl, 40 mM NaF. 1 mM Na3VO4, 1 mM phenylmethylsulfonlylfluoride, and 10 μg/ml. each of leupeptin, aprotinin and soybean trypsin inhibitor) for 30 min on ice. Lysates were centrifuged at 15,000×g for 10 min and protein concentration determined by bicinchoninic acid protein assay (Pierce). Equal amounts of total protein were resolved by SDS-PAGE and transferred onto Immobilon PVDF membranes (Millipore) by electroblotting. Blots were blocked overnight in 5% nonfat milk in TBS-T (0.1% Tween-20 TBS, 10 mM Tris pH 7.4, 150 mM NaCl) at 4° C. and subsequently probed with either anti-cyclin A or cyclin B1 antibodies (Santa Cruz Biotechnology). Following incubation with HRP-conjugated secondary antibodies, proteins were detected by chemiluminescence (Amersham).

[6] = test system: cyclin B1-associated kinase activity; assay: Immunoprecipitation and in vitro kinase assay (histone H1), cyclin B1; assay type: cell-based, human; details: MB-MDA 468, loosely adherent mitotically arrested cells
Protocol: as §3
(§5) For immunoprecipitation, 100 μg of total protein was incubated with anticyclin A or anti-cyclin B1 (Santa Cruz) antibodies for 2 hours at 4° C. and then for 1 hour following the addition of protein A-Sephaliose. The immune complexes were washed 4× with lysis buffer and boiled in SDS-PAGE sample buffer for 5 min. Following SDS-PAGE, proteins were transferred onto Immobilon and analyzed by western blotting.
(§6) For in vitro kinase reactions, immune complexes were washed 4× with lysis buffer, 2× with kinase buffer (20 mM Tris pH 7.4, 7.5 mM MgCl2, 1 mM DTT) and incubated in 40 μl of kinase buffer containing 2 μg histone H1, 10 μCi [γ-^32P] ATP and 300 μM ATP for 10 min at 37° C. The reaction was stopped by the addition of SDS-PAGE sample buffer and boiled for 5 min. Proteins were resolved on SDS-PAGE, transferred onto Immobilon and exposed to autoradiography film or phosphoimager screen. Kinase activity was quantitated by FUJIX phosphoimager and MacBAS program software.

[7] = test system: Rb transfected MB-MDA 468 cells (468-7 and 468-19); assay: Cell cycle analysis in Rb transfected MB-MDA 468 cells; assay type: cell-based, human
Protocol: (§7) To further confirm that the gene product of the Rb gene permits progression through mitosis in the presence of an HSP90 inhibitor, MB-MDA 468 cells were transfected with the plasmid pUHD1 0-3HGR containing full-length 4.7 kb human Rb cDNA. Rb transfectants were grown in DME-F12 media supplemented with 5% fetal calf serum (BRL), 2 mM glutamine and 50 μg/ml each of penicillin and streptomycin and 100 μg/ml hygromycin B (Boehringer Mannheim). To confirm the presence of the Rb gene product Western blot analysis was carried out using anti-Rb antibodies (Pharmingen) as described herein. Vector control, MB-MDA 468, and Rb transfected MB-MDA 468 cells were arrested with aphidicolin as described above. After release from aphidicolin arrest, transfected and non-transfected MM-MDA 468 cells were cultured in the presence of an ansamycin inhibitor as described in Example 1. Cell progression was monitored by flow cytometric analysis of ethidium bromide-stained nuclei as described above.

[8] = test system: cyclin B1 protein expression; assay: Immunoblot analysis of cyclin B1 expression; assay type: cell-based, human; details: MB-MDA 468, compared to control
Protocol: as §3, §4

[9] = test system: cyclin A-associated kinase activity; assay: Immunoprecipitation and in vitro kinase assay (histone H1), cyclin A; assay type: cell-based, human; details: MB-MDA 468, arrested cells compared to control cells
Protocol: as §3, §5, §6

MB-MDA 468 cells [10] = assay: Immunofluorescent analysis (bisbenzimide, anti-α-tubulin, ACA/CREST); assay type: cell-based, human
Protocol: For immunofluorescent analysis, harvested cells were washed with PBS, fixed with methanol for 20 min at −20° C., washed again and blocked for 30 min with 2% BSA in PBS. Cells were then stained with anti-α-tubulin (Sigma) and anti-centromere protein antibodies (ACA/CREST) (gift of Dr. J. D. Rattner) in 2% BSA PBS for 1 hour. Following 3 washes with 0.5% BSA in PBS, cells were incubated with anti-human FITC conjugated, antimouse rhodamine conjugated antibodies (Molecular Probes) and 2 μg/ml bisbenzimide in 2% BSA in PBS for 45 min. Cells were then washed 4× with 0.5% BSA in PBS, resuspended in PBS and images captured by confocal microscopy or with a CCD camera. Images were then processed using Slidebook 3.0 and Adobe Photoshop program software.

[11] = test system: Rb-wild type Colo 205 cells; assay: Synchrony experiment: release from aphidicolin block, Colo 205; assay type: cell-based, human; details: released into drug
Protocol: (§8) Nuclei were isolated for flow cytometry assays stained with ethidium bromide and analyzed using a Becton Dickinson fluorescence-activated cell sorter. Statistical data was obtained using Multicycle program software.
(§9) For synchrony experiments, cells were treated with 1 μg/ml aphidicolin (Sigma) for 18 hours, washed and replated in media containing DMSO or HA.

[12] = test system: Rb-negative MB-MDA 468 cells; assay: Synchrony experiment: release from aphidicolin block, MB-MDA 468; assay type: cell-based, human; details: released into drug
Protocol: as §8, §9, §7

SMILES: C=CCNC1=C2C[C@@H](C)C[C@H](OC)[C@H](O)[C@@H](C)/C=C(\C)[C@H](OC(N)=O)[C@@H](OC)/C=C\C=C(/C)C(=O)NC(=CC1=O)C2=O [17-AAG, 17-allylamino-(17)-demethoxygeldanamycin]
- cell cycle effect in tumor cell lines [1]: growth arrest in G1
- cell cycle profiles and mitotic phenotype compared with HA ([2]; Rb-dependent): same Rb-dependent cell cycle profiles and mitotic phenotype as observed with HA

SMILES: CO[C@H]1[C@@H](OC)C[C@H](C)[C@@H](OC)C2=CC(=O)C=C(NC(=O)/C(C)=C/C=C\[C@H](OC)[C@@H](OC(N)=O)/C(C)=C/[C@@H]1C)C2=O [HA, herbimycin A]
- cell cycle effect in E6/E7 transfectants [3]: arrested with 4n DNA content; also recorded: mitotic arrest and not G1 arrest
- cell cycle effect in primary HFK cells [4]: accumulate in G1
- mitotic index of the loosely adherent population (MB-MDA 468 cells [5]; MB-MDA 468, enriched for mitotically arrested cells): greater than 90%
- mitotic index (cells in mitosis) (MB-MDA 468 cells [5]; MB-MDA 468 cells, treated population, control 5-10%): 60-70%
- cell cycle effect in tumor cell lines [1]: growth arrest in G1
- cyclin A expression (cyclin A expression): slightly lower
- cyclin B1-associated kinase activity, elevation compared to control [6]: 5 fold
- cell cycle effect in Rb-transfectants ([7]; clones 468-7 and 468-19, asynchronous): increase in G1 and had no effect on G2/M; also recorded: no effect on G2/M in the Rb-transfectants and instead caused an increase in G1
- cell cycle progression of Rb transfectants after release from aphidicolin block ([7]; clones 468-7 and 468-19, released into drug): cycled through mitosis and entered G1; also recorded: abrogates HA-induced mitotic arrest
- cyclin B1 protein expression [8]: increased
- cyclin A-associated kinase activity [9]: slightly lower
- chromosomes localized to the poles scored as double dots for ACA staining (MB-MDA 468 cells [10]; 77 chromosomes localized to the poles): 87%
- spindle formation (α-tubulin staining) (MB-MDA 468 cells [10]; arrested Rb-negative cells): arrested cells contained bipolar spindles
- chromosomal distribution (bisbenzimide and ACA/CREST staining) (MB-MDA 468 cells [10]; arrested Rb-negative cells, in most cells): chromosomes localized both to the poles and within the spindle
- cell cycle effect in tumor cell lines with mutated Rb ([2]; MB-MDA 468, BT-549, DU145 and DU4475, 250 ng/ml, 24 hours, FIG. 1B): accumulation of cells with 4n DNA content
- cell cycle effect in control transfectants ([2]; control transfectants (MB-MDA 468 cells)): accumulated with 4n DNA content
- cell cycle progression after release from aphidicolin block [11]: complete mitosis; also recorded: progressed through G2 and mitosis and were arrested in the next G1
- time to arrest in the next mitosis after release from aphidicolin [12]: ≤ 12 h

SMILES: C[C@@H]1C[C@H]2O[C@@H]2/C=C\C=C\C(=O)Cc2c(Cl)c(O)cc(O)c2C(=O)O1 [Radicicol]
- cell cycle effect in Rb-positive cell lines ([1]; Colo205 and MCF7, 435 nM, 24 hours): induced G1 arrest
- chromosomal distribution in arrested MDA 468 cells (MB-MDA 468 cells [10]; MDA 468 cells, radicicol-arrested): chromosomes localized to the poles as well as strewn along the spindle
- cell cycle effect in Rb-negative MDA-468 cells ([2]; MDA-468, 435 nM, 24 hours): accumulation of cells with 4n DNA content

SMILES: COC(=O)Nc1nc2ccc(C(=O)c3cccs3)cc2[nH]1 [nocodazole]
- cyclin A expression (cyclin A expression): slightly lower
- cyclin A-associated kinase activity [9]: slightly lower
